Experimental data as given in article PMC3362725, “An open-label, phase 1 study evaluating safety, tolerability, and pharmacokinetics of linifanib (ABT-869) in Japanese patients with solid tumors” (Cancer Chemotherapy and Pharmacology, 2012).
Values joined by “and” are separate entries in the source; they are usually repeats but may differ in a detail not shown here. Identical values can stand only once. Marks after values point to notes of the source that are not given here.

Assay: Safety and tolerability: adverse events per CTCAE v3, dose-limiting toxicity, phase 1 study
Assay type: in vivo, human (Japanese patients with solid tumors)
Procedure: A standard 3 + 3 design determined the dose level assignment. Patients were assigned to one of four sequential dose cohorts of once-a-day dose regimen of oral linifanib: 0.05, 0.10, 0.20, or 0.25 mg/kg, administered in the morning. […] Dose-limiting toxicity (DLT) was defined as Grade 4 neutropenia lasting >7 days, Grade 4 thrombocytopenia or decreased hemoglobin, Grade 3 or greater thrombocytopenia (if blood transfusion was required), febrile neutropenia, non-hematological toxicity except for manageable nausea, vomiting, anorexia, diarrhea, constipation or electrolyte abnormality, or a toxicity that required suspension of study drug for >7 days.
Patients self-administered linifanib once daily, on a 21-day cycle after fasting, and treatment continued until disease progression or intolerable toxicity. […] The initial oral dose, 2.5–25.0 mg in increments of 2.5 mg, was determined by the patients’ weights. […] The dose was reduced by 5.0 mg for patients ≥86 kg in the 0.10 mg/kg cohort, for patients in the 0.20 mg/kg cohort who were ≥81 kg at the first reduction and 61–80 and ≥96 kg at the 2nd reduction, and for patients in the 0.25 mg/kg cohort who were ≥66 kg at the first reduction and ≥86 kg at the second reduction. Patients were discontinued if they required dose reduction, specified by cohort: Any reduction (0.05 mg/kg cohort); >1 reduction (0.10 mg/kg cohort, and patients ≤31 kg in the 0.20 mg/kg cohort with an initial 5 mg dose); >2 reductions (0.25 mg/kg cohort, and patients ≥32 kg in the 0.20 mg/kg cohort with an initial ≥7.5 mg dose).
Baseline evaluations included physical examination, body weight, vital signs, 12-lead electrocardiogram, ECOG PS assessment, pregnancy test, laboratory tests, and multiple-gated acquisition scan/echocardiogram. Tumor response and/or disease progression was assessed by computerized tomography (CT) scan or magnetic resonance imaging (MRI) per RECIST [20] at screening and on Day (D) 1 of every second cycle prior to the subsequent treatment period, until tumor progression or until final visit. Complete response and partial response (PR) were defined according to RECIST [20]; objective response rate (ORR) was defined as the proportion of patients with best response of PR or CR among the study population. Safety assessments included laboratory test results and adverse events (AEs), which were graded according to CTCAE v3 [18] and coded by medical dictionary of regulatory activities (MedDRA) 1.0.

With `Cc1ccc(F)c(NC(=O)Nc2ccc(-c3cccc4[nH]nc(N)c34)cc2)c1` [linifanib, N-(4-(3-amino-1H-indazol-4-yl)phenyl)-N’-(2-fluoro-5-methylphenyl)urea] the “Neutropenia, linifanib-related AE, patients” value (“Neutropenia … patients” for short) (0.20 mg/kg n = 3, G2) was 2, the “Palmar-plantar erythrodysaesthesia, linifanib-related AE, patients” value (“Palmar-plantar erythrodysaesthesia” for short) (0.20 mg/kg n = 3, G2) was 3 and the “Thrombocytopenia, linifanib-related AE, patients” value (shortened to “Thrombocytopenia … patients”) (0.20 mg/kg n = 3, G2) was 2. For the same molecule, the “Weight decreased, linifanib-related AE, patients” value (“Weight decreased” for short) (0.20 mg/kg n = 3, G2) was 2, the “Diarrhea, linifanib-related AE, patients” value (0.20 mg/kg n = 3, G3) was 1 and the “Hypertension, linifanib-related AE, patients” value (“Hypertension … patients” below) (0.20 mg/kg n = 3, G3) was 1. The “Proteinuria, linifanib-related AE, patients” value (“Proteinuria … patients” for short) (0.20 mg/kg n = 3, G3) was 1, the dose-limiting toxicity observed (0.25 mg/kg cohort, one patient, dose interruption >7 days, discontinuation on D29) was “Grade 1 T-wave inversion” and the “Grade 3 linifanib-related AEs” value (0.25 mg/kg dose) was “four”. For the same molecule, the “ALT increased, linifanib-related AE, patients” value (“ALT increased” for short) (0.25 mg/kg n = 6, G1) was 3, the “AST increased, linifanib-related AE, patients” value (0.25 mg/kg n = 6, G1) was 6 and the “Blood ALKP increased, linifanib-related AE, patients” value (0.25 mg/kg n = 6, G1) was 4. For the same molecule, the “Blood TG increased, linifanib-related AE, patients” value (from here on “Blood TG increased”) (0.25 mg/kg n = 6, G1) was 2, the “Blood TSH increased, linifanib-related AE, patients” value (shortened to “Blood TSH increased”) (0.25 mg/kg n = 6, G1) was 1 and the “Blood cholesterol increased, linifanib-related AE, patients” value (0.25 mg/kg n = 6, G1) was 2. For the same molecule, the “Blood urine present, linifanib-related AE, patients” value (0.25 mg/kg n = 6, G1) was 4, the “Fatigue, linifanib-related AE, patients” value (0.25 mg/kg n = 6, G1) was 4 and the “GGT increased, linifanib-related AE, patients” value (0.25 mg/kg n = 6, G1) was 3. The “Leukopenia, linifanib-related AE, patients” value (“Leukopenia … patients” for short) (0.25 mg/kg n = 6, G1) was 3, the “Neutropenia … patients” value (0.25 mg/kg n = 6, G1) was 2 and the “Proteinuria … patients” value (0.25 mg/kg n = 6, G1) was 1. For the same molecule, the “Rash, linifanib-related AE, patients” value (0.25 mg/kg n = 6, G1) was 6, the “Thrombocytopenia … patients” value (0.25 mg/kg n = 6, G1) was 2 and the “Weight decreased” value (0.25 mg/kg n = 6, G1) was 1. For the same molecule, the “T-wave abnormality, linifanib-related AE, patients” value (0.25 mg/kg n = 6, G1, dose-limiting toxicity) was 1^a, the “Anorexia, linifanib-related AE, patients” value (0.25 mg/kg n = 6, G2) was 2 and the “Blood TG increased” value (0.25 mg/kg n = 6, G2) was 1. For the same molecule, the “Blood TSH increased” value (0.25 mg/kg n = 6, G2) was 1, the “Diarrhea, linifanib-related AE, patients” value (0.25 mg/kg n = 6, G2) was 2 and the “Fatigue, linifanib-related AE, patients” value (0.25 mg/kg n = 6, G2) was 1. For the same molecule, the “Hypertension … patients” value (0.25 mg/kg n = 6, G2) was 6, the “Leukopenia … patients” value (0.25 mg/kg n = 6, G2) was 2 and the “Neutropenia … patients” value (0.25 mg/kg n = 6, G2) was 2. The “Palmar-plantar erythrodysaesthesia” value (0.25 mg/kg n = 6, G2) was 3, the “Proteinuria … patients” value (0.25 mg/kg n = 6, G2) was 2 and the “Thrombocytopenia … patients” value (0.25 mg/kg n = 6, G2) was 2. For the same molecule, the “Weight decreased” value (0.25 mg/kg n = 6, G2) was 1, the “ALT increased” value (0.25 mg/kg n = 6, G3) was 1 and the “Neutropenia … patients” value (0.25 mg/kg n = 6, G3) was 1. For the same molecule, the “Proteinuria … patients” value (0.25 mg/kg n = 6, G3) was 2, the “dose reductions or interruptions for hypertension, neutropenia, or leucopenia” value (18 patients) was “no dose reductions or interruptions” and the “ALT increased” value (All patients N = 18, any grade) was 10 (56) n (%). For the same molecule, the “AST increased, linifanib-related AE, patients” value (All patients N = 18, any grade) was 13 (72) n (%), the “Anorexia, linifanib-related AE, patients” value (All patients N = 18, any grade) was 7 (39) n (%) and the “Blood ALKP increased, linifanib-related AE, patients” value (All patients N = 18, any grade) was 8 (44) n (%). The “Blood TG increased” value (All patients N = 18, any grade) was 11 (61) n (%), the “Blood TSH increased” value (All patients N = 18, any grade) was 8 (44) n (%) and the “Blood cholesterol increased, linifanib-related AE, patients” value (All patients N = 18, any grade) was 10 (56) n (%). For the same molecule, the “Blood urine present, linifanib-related AE, patients” value (All patients N = 18, any grade) was 9 (50) n (%), the “Diarrhea, linifanib-related AE, patients” value (All patients N = 18, any grade) was 8 (44) n (%) and the “Fatigue, linifanib-related AE, patients” value (All patients N = 18, any grade) was 9 (50) n (%). The “GGT increased, linifanib-related AE, patients” value (All patients N = 18, any grade) was 8 (44) n (%), the “Hypertension … patients” value (All patients N = 18, any grade) was 17 n (%) and 17 (94) n (%) and the “Leukopenia … patients” value (All patients N = 18, any grade) was 10 (56) n (%). The “Neutropenia … patients” value (All patients N = 18, any grade) was 11 (61) n (%), the “Palmar-plantar erythrodysaesthesia” value (All patients N = 18, any grade) was 9 (50) n (%) and the “Proteinuria … patients” value (All patients N = 18, any grade) was 10 (56) n (%). For the same molecule, the “Rash, linifanib-related AE, patients” value (All patients N = 18, any grade) was 11 (61) n (%), the “T-wave abnormality, linifanib-related AE, patients” value (All patients N = 18, any grade) was 2 (11) n (%) and the “Thrombocytopenia … patients” value (All patients N = 18, any grade) was 8 (44) n (%). The “Weight decreased” value (All patients N = 18, any grade) was 10 (56) n (%), the tolerability (Japanese patients with solid tumors, dose range 0.05–0.25 mg/kg) was “well tolerated” and the “number of DLTs reported” value (all cohorts, 18 patients) was “Two”. For the same molecule, the “Grade 4 or 5 AEs” value (all doses, 18 patients) was “no Grade 4 or 5 AEs” and the “patients who discontinued due to AEs” value (of 16 who discontinued) was “two”.
